Source: patent publication US8309551B2, “Pyrazolopyridine, indazole, imidazopyridine, imidazopyrimidine, pyrazolopyrazine and pyrazolopyridine derivatives as stimulators of guanylate cyclase for cardiovascular disorders” (Bayer Intellectual Property GmbH, priority 2006, dated 2012)
Read-outs that look alike come from different tables or passages of the source.

Test system: aorta rings
Test: Vasorelaxant effect in vitro (phenylephrine-contracted rabbit aorta rings)
Details: Oryctolagus cuniculus, read-out: IC50 (concentration necessary to reduce the level of contraction by 50%)
Experimental: B-1. Vasorelaxant Effect in Vitro
Rabbits are stunned by a blow to the back of the neck and are exsanguinated. The aorta is removed, freed of adherent tissue, divided into rings 1.5 mm wide and placed singly in 5 ml organ baths with carbogen-gassed Krebs-Henseleit solution of the following composition (in each case mM): NaCl: 119; KCl: 4.8; CaCl2×2 H2O: 1; MgSO4×7 H2O: 1.4; KH2PO4: 1.2; NaHCO3: 25; glucose: 10, under an initial tension at 37° C. The force of contraction is detected with Statham UC2 cells, amplified and digitized via A/D converters (DAS-1802 HC, Keithley Instruments Munich), and recorded in parallel on chart recorders. A contraction is induced by adding phenylephrine to the bath cumulatively in increasing concentration. After several control cycles, the substance to be investigated is added in each further run in increasing dosage each time, and the level of contraction is compared with the level of contraction achieved in the last preceding run. The concentration necessary to reduce the level of contraction by 50% (IC50) is calculated therefrom. The standard application volume is 5 μl, and the DMSO content in the bath solution corresponds to 0.1%.

[1] = rabbit aorta rings, contraction induced by phenylephrine, 37° C., 0.1% DMSO

Nc1cc(N)nc(-c2nc(Cc3ccccc3F)c3ncccn23)n1 [Example 7, 2-[8-(2-Fluorobenzyl)imidazo[1,5-a]pyrimidin-6-yl]pyrimidine-4,6-diamine]
IC50: 1050 nM

Nc1nc(N)nc(-c2nc(Cc3ccccc3F)c3ncccn23)n1 [Example 4, 6-[8-(2-Fluorobenzyl)imidazo[1,5-a]pyrimidin-6-yl]-1,3,5-triazine-2,4-diamine]
IC50: 215 nM

Nc1nc(N)nc(-n2nc(Cc3ccccc3F)c3ccccc32)n1 [Example 2, 6-[3-(2-Fluorobenzyl)-1H-indazol-1-yl]-1,3,5-triazine-2,4-diamine]
IC50 [1]: 300 nM

Nc1nc(N)nc(-c2nc(Cc3ccccc3F)n3ccccc23)n1 [Example 3, 6-[3-(2-Fluorobenzyl)imidazo[1,5-a]pyridin-1-yl]-1,3,5-triazine-2,4-diamine]
IC50 [1]: 2900 nM

Nc1nc(N)nc(-n2nc(Cc3ccccc3F)c3ncccc32)n1 [Example 1, 6-[3-(2-Fluorobenzyl)-1H-pyrazolo[4,3-b]pyridin-1-yl]-1,3,5-triazine-2,4-diamine]
IC50 [1]: 240 nM
